Test: RP, Thermo Scientific Acclaim RSLC 120 C18, 100 × 2.1 mm, 2.2 µm, 30 °C, 0.2 mL/min, estimated dead time 1.1 min; A: 90% water + 10% methanol + 0.01% formic acid + 5 mM ammonium formate, pH 3.61; B: methanol + 0.01% formic acid + 5 mM ammonium formate, pH 3.61; gradient (min/%B) 0/1 1/1 2/39 13/99.9 15/99.9 15.1/1 20.1/1
Details: stereoisomer not certain
c1cc2c(c(NC3=NCCN3)c1)CCC2 [Indanazoline] gave an LC retention time of 4.76 min.
COCCCOc1cc(CC(CC(N)C(O)CC(C(=O)NCC(C)(C)C(N)=O)C(C)C)C(C)C)ccc1OC (stereo unspecified) [Aliskiren] gave an LC retention time of 8.87 min.
For Nc1nc2c(ncn2COCCO)c(=O)[nH]1 [Aciclovir], the LC retention time was 2.34 min.
For Cc1onc(-c2c(Cl)cccc2Cl)c1C(=O)NC1C(=O)N2C1SC(C)(C)C2C(=O)O (stereo unspecified) [Dicloxacillin], the LC retention time was 7.8 min.
With CN1C(=O)CC(=O)N(c2ccccc2)c2cc(Cl)ccc21 [Clobazam] the LC retention time was 8.08 min.
Compound CCOc1ccc(S(=O)(=O)O)c2cccnc12 [Actinoquinol] has an LC retention time of 3.56 min.
In the case of Nc1c([N+](=O)[O-])ccc(Oc2ccccc2)c1Cl [Aclonifen], the LC retention time was 10.9 min.
Work on CCC(C(=O)c1ccc2c(c1)OCO2)N1CCCC1 (stereo unspecified) [MDPBP] yielded an LC retention time of 4.49 min.
With CNC(=O)Oc1ccccc1C(C)C [Isoprocarb] the LC retention time was 8.12 min.
For CC=C1CC(C)C(O)(CO)C(=O)OCC2=CCN3CCC(OC1=O)C23 (stereo unspecified) [Retrorsine], the LC retention time was 4.01 min.
Work on NC(=NN=Cc1ccc(Cl)cc1)NN=Cc1ccc(Cl)cc1 [Robenidine] yielded an LC retention time of 10.4 min.
Work on CN(C)c1nc(N(C)C)nc(N(C)C)n1 [Altretamine] yielded an LC retention time of 10.1 min.
In the case of CC(=O)OC1CCC2C3CCC4CC(=O)C=C(C)C4(C)C3CCC12C (stereo unspecified) [Metenolone acetate], the LC retention time was 12.5 min.
Work on COC(=O)c1c(Cl)c(Cl)c(C(=O)OC)c(Cl)c1Cl [Chlorthal-dimethyl (DCPA. Dacthal) (NH4)] yielded an LC retention time of 11.6 min.
CCSc1ccc2c(c1)N(CCCN1CCN(C)CC1)c1ccccc1S2 [Thiethylperazine] showed an LC retention time of 10.4 min.
C=CC=CCC1=C(C)C(OC(=O)C2C(C=C(C)C(=O)OC)C2(C)C)CC1=O (stereo unspecified) [Pyrethrin II] gave an LC retention time of 11.7 min.
Work on CCCOc1ccc(C(=O)CCN2CCCCC2)cc1 [Propipocaine] yielded an LC retention time of 6.24 min.
CCCCC1(COC(=O)CCC(=O)O)C(=O)N(c2ccccc2)N(c2ccccc2)C1=O [Suxibuzone] showed an LC retention time of 9.61 min.
In the case of CC1(C)C(C(=O)c2cn(Cc3ccc(F)cc3)c3ccccc23)C1(C)C [FUB-144], the LC retention time was 12.2 min.
Work on CCOC(=O)C(CCc1ccccc1)NC(C)C(=O)N1C(C(=O)O)CC2CCCC21 (stereo unspecified) [Ramipril] yielded an LC retention time of 8.56 min.
Compound CCOc1ccc(NC(=O)CC(C)O)cc1 (stereo unspecified) [Bucetin] has an LC retention time of 6.27 min.
Compound O=C(NC(=O)c1c(F)cccc1F)Nc1ccc(Cl)c(Oc2ncc(C(F)(F)F)cc2Cl)c1 [Fluazuron] has an LC retention time of 12.7 min.
With CSC(=O)c1c(C(F)F)nc(C(F)(F)F)c(C(=O)SC)c1CC(C)C [Dithiopyr] the LC retention time was 11.7 min.
With CCN(CC)c1nc(C)cc(OP(=S)(OC)OC)n1 [Pirimiphos-methyl] the LC retention time was 11.3 min.
Compound CCN(CC)CCNC(=O)c1ccc(N)cc1 [Procainamide] has an LC retention time of 2.83 min.
In the case of CNC(C)Cc1ccccc1OC (stereo unspecified) [Methoxyphenamine], the LC retention time was 4.69 min.
With CC(Cc1ccc(C(C)C(=O)O)cc1)C(=O)O (stereo unspecified) [Ibuprofen-Carboxy] the LC retention time was 6.99 min.
CCCCCCCCCCCC(CC1OC(=O)C1CCCCCC)OC(=O)C(CC(C)C)NC=O (stereo unspecified) [Orlistat (Na)] showed an LC retention time of 14.6 min.
For COc1ccc(C(=O)c2c(C)n(CCN3CCOCC3)c3ccccc23)cc1 [WIN-48-098], the LC retention time was 9.55 min.
CC(C)(C)Nc1nc(N)nc(Cl)n1 [Terbuthylazine-desethyl] gave an LC retention time of 7.48 min.
In the case of COP(=S)(OC)Oc1cc(Cl)c(I)cc1Cl [Iodofenphos (Jodfenphos)], the LC retention time was 12.7 min.
COc1cc(OC)nc(NC(=O)NS(=O)(=O)c2cc(NC=O)ccc2C(=O)N(C)C)n1 [Foramsulfuron] showed an LC retention time of 7.54 min.
In the case of CCN(CC)CCCN(c1ccccc1)C1Cc2ccccc2C1 [Aprindine], the LC retention time was 8.85 min.
For CC[N+]1(C)C2CC(OC(=O)C(CO)c3ccccc3)CC1C1OC12 (stereo unspecified) [Oxitropium], the LC retention time was 3.87 min.
Compound COc1cc(SC(C)C)c(OC)cc1CCN [2C-T-4] has an LC retention time of 6.69 min.
In the case of CCCC(NC(C)C(=O)N1C(C(=O)O)CC2CCCCC21)C(=O)OCC (stereo unspecified) [Perindopril], the LC retention time was 13.2 min.
O=C(NC(=O)c1c(F)cccc1F)Nc1cc(Cl)c(F)c(Cl)c1F [Teflubenzuron] showed an LC retention time of 12.5 min.
For CCc1cc(OC)c(CC(C)N)cc1OC (stereo unspecified) [DOET], the LC retention time was 6.88 min.
CCCCN(CCCC)CCCC [Tributylamine] showed an LC retention time of 5.28 min.
CC(C)OC(=O)c1cc(C(=O)OC(C)C)cc([N+](=O)[O-])c1 [Nitrothal-isopropyl] showed an LC retention time of 12 min.
Compound CC(N)Cc1cccc(C(F)(F)F)c1 (stereo unspecified) [Fenfluramine-Nor] has an LC retention time of 5.91 min.
For CSC(C)=NOC(=O)N(C)SN(C)C(=O)ON=C(C)SC [Thiodicarb], the LC retention time was 7.64 min.
In the case of CC1(C)CCC(Cc2ccc(Cl)cc2)C1(O)Cn1cncn1 (stereo unspecified) [Metconazole], the LC retention time was 11.2 min.
For CCCCOc1ccc(C(=O)OCCN(CC)CC)cc1 [Butoxycaine], the LC retention time was 11.3 min.
For CNC(=O)Oc1cccc2c1OC(C)(C)O2 [Bendiocarb], the LC retention time was 7.02 min.
Compound Nc1c2c(nc3ccccc13)CCCC2 [Tacrine] has an LC retention time of 4.77 min.
With OCc1ncc2n1-c1ccc(Cl)cc1C(c1ccccc1F)=NC2 [Midazolam -1-Hydroxy] the LC retention time was 8.44 min.
Compound CC(N)Cc1ccc2[nH]ccc2c1 (stereo unspecified) [5-(2-Aminopropyl)indole (5-API)] has an LC retention time of 4.07 min.
In the case of CCSc1cc(OC)c(CCN)cc1OC [2CT-2], the LC retention time was 5.88 min.
In the case of CCOC(=O)C(Cl)=Cc1cc(N2C(=O)C3=C(CCCC3)C2=O)ccc1Cl [Cinidon-ethyl], the LC retention time was 12.4 min.
For COC(=O)C(C)Oc1ccc(Cl)cc1Cl (stereo unspecified) [Dichlorprop-methyl], the LC retention time was 10.5 min.
Compound CCCCCc1cc(O)c2c(c1)OC(C)(C)C1CCC(CO)=CC21 (stereo unspecified) [THC-OH. 11-OH-THC] has an LC retention time of 12.5 min.
Work on CCOCn1c(-c2ccc(Cl)cc2)c(C#N)c(Br)c1C(F)(F)F [Chlorfenapyr] yielded an LC retention time of 11.8 min.
CC(=O)OCCN1CCN(CCCN2c3ccccc3Sc3ccc(Cl)cc32)CC1 [Thiopropazate] gave an LC retention time of 9.61 min.
Work on CCCCCCCCc1ccc(OCCO)cc1 [Octylphenol monoethoxylates (OP1EO)_NH4 adduct] yielded an LC retention time of 12.4 min.
Compound Cc1ccccc1CN1CCN(CCOC(c2ccccc2)c2ccccc2Cl)CC1 (stereo unspecified) [Chlorbenzoxamine] has an LC retention time of 10.8 min.
CCCCCn1c(C)c(C(=O)c2cccc3ccccc23)c2ccccc21 [JWH-007] gave an LC retention time of 12.6 min.
CCOP(=S)(Oc1ccc(C#N)cc1)c1ccccc1 (stereo unspecified) [Cyanofenphos] showed an LC retention time of 10.9 min.
In the case of CC#Cc1cc(C)nc(Nc2ccccc2)n1 [Mepanipyrim], the LC retention time was 10.2 min.
For CN(C(=O)COc1nc2ccccc2s1)c1ccccc1 [Mefenacet], the LC retention time was 9.83 min.
Work on CCCS(=O)(=O)c1ccc2nc(NC(=O)OC)[nH]c2c1 [Albendazole sulfone] yielded an LC retention time of 5.86 min.
c1ccc(C(c2ccccc2)C2CCCCN2)cc1 (stereo unspecified) [Desoxypipradol] showed an LC retention time of 6.3 min.
Work on C=CC(=O)NC(C)(C)CS(=O)(=O)O [2-Acrylamido-2-methylpropane sulfonic acid (AMPS)] yielded an LC retention time of 2.8 min.
In the case of Cc1cccc(C)c1N(Cn1cccn1)C(=O)CS(=O)CC(=O)O (stereo unspecified) [Metazachlor BH 479-9], the LC retention time was 4.94 min.
With O=C(O)COCCN1CCN(C(c2ccccc2)c2ccc(Cl)cc2)CC1 (stereo unspecified) [Cetirizine] the LC retention time was 8.79 min.
With COc1ccc(-c2ccccc2)cc1NNC(=O)OC(C)C [Bifenazate] the LC retention time was 9.87 min.
In the case of CC(C)N(C(=O)CCl)c1ccccc1 [Propachlor], the LC retention time was 8.25 min.
Work on C=CCN(CC=C)C(=O)CCl [Allidochlor] yielded an LC retention time of 6.37 min.
In the case of CCN(CC)C(=O)SCc1ccccc1Cl [Orbencarb], the LC retention time was 11.3 min.
CCCCCCCCSC(=O)Oc1cc(Cl)nnc1-c1ccccc1 [Pyridate] showed an LC retention time of 13.8 min.
CCN(CC)C(=O)SCc1ccc(Cl)cc1 [Thiobencarb] gave an LC retention time of 11.4 min.
COC(C)(C)CCCC(C)CC=CC(C)=CC(=O)OC(C)C (stereo unspecified) [Methoprene] gave an LC retention time of 13.6 min.
CCc1c(C(=O)NCCc2ccc(N3CCCCC3)cc2)[nH]c2ccc(Cl)cc12 gave an LC retention time of 12.7 min.
Cc1nnc(SCC2=C(C(=O)O)N3C(=O)C(NC(=O)Cn4cnnn4)C3SC2)s1 (stereo unspecified) [Cefazolin] gave an LC retention time of 4.16 min.
C=CCC1(C(C)C#CCC)C(=O)NC(=O)N(C)C1=O (stereo unspecified) [Methohexital] showed an LC retention time of 9.09 min.
Work on C#CC1(OC(C)=O)CCC2C3CCC4=CC(=NO)CCC4C3CCC21CC (stereo unspecified) [Norgestimate] yielded an LC retention time of 11.9 min.
In the case of COC(=O)C1=C(C)NC(C)=C(C(=O)OC(C)(C)CN(C)CCC(c2ccccc2)c2ccccc2)C1c1cccc([N+](=O)[O-])c1 (stereo unspecified) [Lercanidipine], the LC retention time was 11.1 min.
With CCCOc1nc2ccc(I)cc2c(=O)n1CCC [Proquinazid] the LC retention time was 13.3 min.
With O=C(O)Cc1cccc2ccccc12 [Naphthylacetic acid (1-)] the LC retention time was 7.76 min.
In the case of COC(=O)C(C)N(C(=O)c1ccco1)c1c(C)cccc1C (stereo unspecified) [Furalaxyl], the LC retention time was 8.99 min.
CCCc1nn(C)c2c(=O)[nH]c(-c3cc(C(=O)CN4CCN(CCO)CC4)ccc3OCC)nc12 [Acetildenafil-Hydroxy] showed an LC retention time of 6.94 min.
For CN1CCC(N(Cc2ccccc2)c2ccccc2)CC1 [Bamipine], the LC retention time was 7.77 min.
C#CC[N+](C)([O-])C(C)Cc1ccccc1 (stereo unspecified) [Deprenyl-N-oxide] gave an LC retention time of 5.33 min.
Cn1cnc2c1c(=O)n(CCCC(=O)O)c(=O)n2C [1-(3-carboxypropyl)-3,7-dimethylxanthine] gave an LC retention time of 4.48 min.
CNC(C)Cc1ccc2c(c1)OCO2 (stereo unspecified) [MDMA] gave an LC retention time of 4.18 min.
Compound CC12C=CC(=O)C=C1CCC1C2CCC2(C)C(O)CCC12 (stereo unspecified) [Boldenone] has an LC retention time of 9.03 min.

From the RepoRT retention time repository (doi:10.1021/acs.analchem.2c02893)
